{
  "source": "patent US20130317096A1",
  "about": "“SYNERGISTIC INTERACTION OF AT LEAST ONE VITAMIN E COMPONENT AND TYROSINASE INHIBITORS FOR DERMATOLOGICAL APPLICATIONS” (Davos Life Science Pte Ltd, priority 2010, published 2013)",
  "key": {"B16 melanoma cells [1]": {"system": "B16 melanoma cells", "test": "Anti-pigmentation effect, photographs of cell pellets", "assay_type": "cell-based, mouse", "conditions": "20 μM", "protocol": "(§1) At different time points, cells were harvested using trysin-EDTA and the cell pellets were washed once with phosphate-buffered saline (PBS). A sample amount from each compound treatment group was divided into two equal parts. These cell pellets were then stored at −80° C. prior to the measurement of the tyrosinase activity and melanin content."}, "tyrosinase [2]": {"system": "tyrosinase", "test": "Western blot of tyrosinase protein expression in B16 melanoma cells", "assay_type": "cell-based, mouse", "conditions": "for tyrosinase protein expression: 20 μM treatment; for tyrosinase protein suppression, dose response and relative potency: increasing dosage; for time response of tyrosinase suppression: single dose, 24 hrs versus 48 hrs", "protocol": "Carcinogenesis, 2006, 27, 2180-9. Briefly, cell lysates were prepared by suspending cell pellets in lysis buffer (50 mmol/l Tris-HCl [pH 8.0], 150 mmol/l NaCl, 1% NP40, 0.5% deoxycholate, 0.1% SDS, […], 1 μg/ml leupeptin, and 1 mmol/l phenylmethylsulfonyl fluoride). The protein concentration was measured using the DC Protein Assay kit (Bio-Rad, Hercules, Calif., USA). An equal amount of protein (30 μg) was loaded onto a 10% SDS polyacrylamide gel for electrophoresis, then transferred onto a polyvinylidene difluoride membrane (Amersham, Piscataway, N.J., USA). The membrane was then incubated with primary antibodies for 1 hr at room temperature against tyrosinase, Id1, and beta-actin (Santa Cruz Biotechnology, Inc., Santa Cruz, Calif., USA). After incubation with appropriate secondary antibodies, signals were visualized by an ECL Western blotting system (Amersham). The expression of β-actin was assessed as an internal loading control for total cell lysate."}, "tyrosinase [3]": {"target": "T1, tyrosinase (Mus musculus, UniProt P11344)", "T1 construct": "suppression of tyrosinase protein expression in B16 melanoma cells; endogenous in cells; host or cells: B16 melanoma cells", "T1 sequence (P11344 19-533)": "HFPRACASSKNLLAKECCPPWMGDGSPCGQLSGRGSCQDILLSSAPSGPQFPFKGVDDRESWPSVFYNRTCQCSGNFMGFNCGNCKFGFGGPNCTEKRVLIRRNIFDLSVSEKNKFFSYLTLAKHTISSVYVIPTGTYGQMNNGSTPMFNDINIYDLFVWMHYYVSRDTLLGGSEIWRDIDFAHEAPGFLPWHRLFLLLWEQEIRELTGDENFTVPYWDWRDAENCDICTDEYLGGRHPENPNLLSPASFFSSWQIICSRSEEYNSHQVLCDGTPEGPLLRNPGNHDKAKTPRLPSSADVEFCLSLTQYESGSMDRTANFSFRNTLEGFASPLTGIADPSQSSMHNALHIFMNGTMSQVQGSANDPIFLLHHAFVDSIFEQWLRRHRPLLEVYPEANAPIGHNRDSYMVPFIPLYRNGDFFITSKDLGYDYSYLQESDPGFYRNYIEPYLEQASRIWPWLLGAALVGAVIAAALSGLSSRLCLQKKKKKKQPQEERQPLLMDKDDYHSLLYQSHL", "test": "Tyrosinase activity of treated B16 melanoma cells (L-DOPA, dopachrome formation)", "assay_type": "cell-based", "conditions": "20 μM; for tyrosinase activity: day 9", "protocol": "as §1\nHarvested cell pellets were homogenized in RIPA buffer (10 mM Tris-HCl [pH 7.5], 1% NP-40, 0.1% sodium deoxycholate, 0.1% SDS, 150 mM sodium chloride, and 1 mM EDTA) with protease inhibitors and placed on ice for 30 min. The supernatants were collected after centrifuging the samples at 15,000 g at 4° C. for 30 min. For every 100 μl of supernatant, 200 μl of 0.3% L-DOPA (Sigma-Aldrich) was added. All samples, including a blank control of RIPA buffer and 0.3% L-DOPA, were incubated at 37° C. for 20 min. The dopachrome formation from each sample was then measured at 475 nm. The absorbance percentage values of the treated groups in comparison to untreated controls were calculated against per μg of the total protein content, which was determined using the DC protein assay (Bio-Rad, Hercules, Calif., USA)."}, "B16 melanoma cells [4]": {"system": "B16 melanoma cells", "test": "Melanin content of treated B16 melanoma cells", "assay_type": "cell-based, mouse", "conditions": "for melanin content lower than controls / melanin content: 20 μM; for melanin content: days 5 and 9", "protocol": "as §1\nHarvested cell pellets were dissolved in 1 ml of 1N sodium hydroxide before incubation at 80° C. The melanin content was then immediately measured at 420 nm. The absorbance percentage values of the treated groups in comparison to untreated controls were calculated against per μg of the determined total protein content."}},
  "data": [
    {"smiles": "CC(C)=CCC/C(C)=C/CC/C(C)=C/CCC1(C)CCc2cc(O)c(C)c(C)c2O1", "note": "(stereo not shown) [γ-tocotrienol, 7,8-dimethyltocotrienol]", "values": [
      {"measurement": "cell pellet pigmentation", "setting": "B16 melanoma cells [1]; listed as gamma T3", "value": "lighter cell pigmentation"},
      {"measurement": "cell pellet pigmentation", "setting": "B16 melanoma cells [1]; listed as γT3", "value": "lighter cell pigmentation"},
      {"measurement": "tyrosinase protein expression", "setting": "tyrosinase [2]; listed as γ-T3", "value": "remarkable suppression of tyrosinase protein expression"},
      {"measurement": "tyrosinase protein expression", "setting": "tyrosinase [2]; listed as γT3", "value": "suppresses tyrosinase protein expression"},
      {"measurement": "tyrosinase protein suppression, dose response and relative potency", "setting": "tyrosinase [2]; listed as γ-T3", "value": "significant suppression of tyrosinase in a dose-dependent manner"},
      {"measurement": "tyrosinase protein suppression, dose response and relative potency", "setting": "tyrosinase [2]; listed as γT3", "value": "stronger"},
      {"measurement": "time response of tyrosinase suppression", "setting": "tyrosinase [2]; listed as γ-T3", "value": "enhanced by increasing the treatment period from 24 to 48 hrs"},
      {"measurement": "time response of tyrosinase suppression", "setting": "tyrosinase [2]; listed as γT3", "value": "enhanced after a 48 hr incubation period"},
      {"measurement": "tyrosinase activity", "setting": "tyrosinase [3]; listed as gamma T3", "value": "significantly suppressed the activity of tyrosinase on day 9"},
      {"measurement": "tyrosinase activity", "setting": "tyrosinase [3]; listed as γT3", "value": "comparable to that treated with 0.05% kojic acid"},
      {"measurement": "tyrosinase activity compared to controls", "setting": "tyrosinase [3]; day 15", "value": "< 15", "unit": "%"},
      {"measurement": "melanin content lower than controls", "setting": "B16 melanoma cells [4]; day 5", "value": 45, "unit": "%"},
      {"measurement": "melanin content lower than controls", "setting": "B16 melanoma cells [4]; day 9", "value": 30, "unit": "%"},
      {"measurement": "melanin content", "setting": "B16 melanoma cells [4]; listed as gamma T3", "value": "significantly suppressed the melanin content up to day 9"},
      {"measurement": "melanin content", "setting": "B16 melanoma cells [4]; listed as γT3", "value": "marginally lower than the treatment samples using 0.05% sodium lactate and kojic acid"},
      {"measurement": "constitutive melanin synthesis", "setting": "B16 melanoma cells [4]; B16 melanoma cells", "value": "suppress constitutive melanin synthesis"}
    ]}
  ]
}
